Data reported in patent US20150175585A1, “FUSED QUINONIC COMPOUNDS” (CENTRO ATLANTICO DEL MEDICAMENTO S.A (CEAMED, S.A.), priority 2012, published 2015).
Like-named read-outs stand apart in the source and are kept apart here.

Columns and labels:
JAK2 = JAK2 phosphorylation western blot assay; assay type: cell-based, human; conditions: 10 microM, HEL or K562 cells (table does not say which)
Protocol: (§1) The Human Erythroleukemia cell line HEL and the human Chronic Myeloid Leukemia cell line K562 were cultured in RPM I 1640 medium containing 10% fetal bovine serum (FBS) and 50 U/ml penicillin/50 U/ml streptomycin at 37° C. in a 5% CO2 humidified atmosphere to a density of 300.000 viable cells/mL in presence of WP1066 (positive control of phosphorylation inhibition) (Verstovsek et al., 2008) or CM-363 at concentrations of 1, 5 and 10 μM. Cell culture reagents were all obtained from BioWhittaker® (Lonza, Verniers, Belgium). Cell growth and viability was determined by propidium iodide (fluorescent dye) exclusion method using the Accuchip 4× Counting Kit and the ADAM automatic cell counter (Digital-Bio, NanoEntek, Ic., Washington St, Mass., USA).As a control of unspecific phosphorylation, some cells in each experiment were exposed to vehicle (negative control of phosphorylation inhibition) (0.1% DMSO).
(§2) For total protein extraction, cells were scraped with RIPA 1× lysis buffer (25 mM Tris-HCl pH 7.6, 150 mM NaCl, 1% NP-40, 1% sodium deoxycholate, 0.1% SDS, no. 89900, Thermo Scientific, Rockford, Ill., USA) supplemented with 1× protease and 1× phosphatase inhibitor cocktails (100× Halt™ Protease Inhibitor Cocktail, no. 87786 and 100× Halt Phosphatase Inhibitor Cocktail, no. 78420, both from Thermo Scientific, Rockford, Ill., USA). An aliquot of each extract was preserved for protein quantification by bicinchoninic acid assay (Pierce® BCA Protein Assay Kit, no. 23225, Thermo Scientific, Rockford, Ill., USA).
(§3) Proteins were solubilized in sample buffer containing 0.0625 M Tris-HCl, pH 6.8, 2.3% (wt/vol) SDS, 10% (vol/vol) glycerol, 5% (vol/vol) f3-mercaptoethanol, and 0.001% (wt/vol) bromophenol blue and boiled at 95° C. for 5 min. Equal amounts (50 μg) of each sample were electrophoresed on 8-10% sodium dodecyl sulfate-polyacrylamide gel electrophoresis (SDS-PAGE) and transferred to nitrocellulose membranes (iBlot® Gel Transfer Stacks, Nitrocellulose, no. IB4010-02, Invitrogen, Barcelona, Spain) as described previously (Fernandez, L, et al., Endocrinology, 13, 1815-1824, 1998; B. Guerra et al., J. Neurochem, 91, 99-109, 2004; B. Guerra et al., J. Appl. Physiol., 102, 1786-1792, 2007; B. Guerra et al., J. Appl. Physiol., 111, 715-725, 2011). The nitrocellulose membranes were then removed from the iBlot® Dry GelTransfer Device (no. IB1001EU, Invitrogen, Barcelona, Spain) and placed in a Ponceau S staining solution (0.5% Ponceau S and 1% glacial acetic acid in water) to verify equal loading of protein in the control and treated samples. After the membranes were stained for 5 min, they were rinsed for 2 min and examined. Equal loading of protein was verified, and the membranes were rinsed for an additional 10 min and immunoscreened. Membranes were blocked with 5% blotting grade blocker nonfat dry milk in Tris Buffered Saline with 0.05% Tween 20 (TBST; blotto-blocking buffer) for at least […]) at room temperature. They were washed thrice in TBS with 0.1% Tween 20 (TBST-0.1). Next, the membranes were incubated over night at 4° C. with the appropriate anti-phospho-antibodies (described below) all diluted (1:1000) in 1% bovine serum albumin (BSA)-1% blotto in TBST (BSA-blotto blocking buffer). […] Membranes were stripped of bound antibodies by incubation in stripping buffer (Restore™ Western Blot Stripping Buffer, no. 21059, Thermo Scientific, Rockford, Ill., USA) at room temperature for 30 min with agitation. Membranes were washed for 3×10 min in TBST-0.1, blocked with blotto-blocking buffer for at least 1 h and re-probed with the corresponding anti-total kinase antibodies (described below) all diluted (1:1000) in blotto-blocking buffer. […]

[1] = tested on: STAT5 transcription (pSPI-GLE1-luc) in HEK-GHR cells; assay: HEK-GHR STAT5 transcription assay (luciferase reporter, rhGH stimulated); assay type: cell-based, human; conditions: compound 45 minutes before 50 nM rhGH, six hours, read-out: Activity (IC50, reduction of luciferase activity)
Description: Plasmids: The full-length GHR was subcloned into pcDNA1/ampicillin (Invitrogen) as described previously (Ross R J, Esposito N, Shen X Y, et al., Mol Endocrinol 1997, 11:265-73). The pSPI-GLE1 (serine protease inhibitor 2.1 GAS-like element 1)-luc reporter construct was generated by subcloning the Stat5-binding element from serine protease inhibitor gene together with a minimal thymidine kinase promoter into the pGL2 plasmid (Promega), which contains the firefly luciferase cDNA (Wood T J, Sliva D, Lobie P E, et al. J Biol Chem 1995, 270:9448-53).
Cell culture: HEK-GHR cell line was maintained in Dulbecco's Modified Eagle Medium (DMEM)/F12 supplemented with 10% fetal bovine serum (FBS) and 50 U/ml penicillin/50 U/ml streptomycin. The cells were maintained in a humidified incubator with 5% CO2 at 37° C. Cell culture reagents were obtained from PAA laboratories. The HEK-GHR cell line is a stable clone generated and kindly donated by Prof. Richard Ross (Clinical Sciences, Northern General Hospital, Sheffield, UK). Briefly, HEK-GHR cell line was generated in HEK 293 cells (human kidney embryonal cell line) by transfection with the calcium phosphate procedure of the GHR plasmid with pcDNA3/Neo (Invitrogen). Selection was made using G418 (400 ug/ml, Sigma) (Maamra M, Finidori J, Von Laue S, et al., J Biol Chem 1999, 274(21):14791-8).
Luciferase reporter assay: Transcription assays were performed in HEK-GHR. The HEK-GHR cells were co-transfected with Stat5 luciferase (pSPI-GLE1-luc) reporter vector together with a plasmid constitutively expressing beta-galactosidase by using Metafectene Pro as described by the manufacturer (Biontex Laboratories GmbH, Munich, Germany). Following transfection, HEK-GHR cells were serum-starved for 20 h. Cells were then treated with vehicle (0.1% DMSO) or the indicated compound for 45 minutes prior to the addition of 50 nM recombinant human Growth Hormone (rhGH) (Norditropin, Novo Nordisk) to the medium. Six hours following rhGH addition, cells were harvested with Passive Lysis Buffer (Promega), and levels of luciferase were measured using Luciferase Assay System as described by the manufacturer (Promega). The Galacto-Light Plus System (Applied Biosystems) was used to measure beta-galactosidase activity.
Statistical analysis. The concentration of drug that provokes 50% reduction of luciferase activity (IC50) was determined by using non-linear regression analysis and data were fitted to a log concentration vs normalized response curve in GraphPad software v5 (San Diego, Calif.).

HEL cells = assay: HEL-based MTT cell viability assay; design: species or system human; conditions: 48 h, read-out: Activity (IC50, reduction of cell viability)
Protocol: Cell viability was assayed by measuring the mitochondrial reduction of the tetrazolium salt 3-(4,5-methyltiazol-2yl)-2,5diphenyl-tetrazolium bromide] (MTT) (Applichen; A2231,0010) (Mosmann T. J Immunol Methods. 1983 16; 65(1-2):55-63; Chuan Y-C et al 2010. Oncogene. 29 (10), 1531-1542. Cells were seeded in 96-well plates in medium supplemented with 10% FBS (Lonza Cat. No: 14-502F), 2 mM L-Glut (Lonza Cat. No: BE17-605E) and 100 U/ml PEST (Lonza Cat. No: DE17-605E) at a cell density of 5000-20000 cells/well. Cells were seeded at a density according to their exponential growth phase. Vehicle (0.05% DMSO) or drug were added to culture medium at the indicated concentrations (10 to 0.01 microM) during 48 h. Then, MTT (0.3 mg/ml) was added to cells following by incubation for 2-4 h at 37° C. in the dark. The medium was then discarded and the formazan precipitate was solubilized by addition of 20% SDS (Sigma; L-5750) in 0.02N HCl (Panreac; 131020.1611) for 12-16 h. The optical density was measured at 595 nm with the iMark Microplate Reader (BioRad, USA). Data was expressed as percent growth above the level in controls and the results in figures were plotted as means±SEM of each test point from 3 replicates.
Statistical analysis. The concentration of drug that provokes 50% reduction of cell viability (IC50) was determined by using non-linear regression analysis and data were fitted to a log concentration vs normalized response curve in GraphPad software v5 (San Diego, Calif.).

STAT5 = STAT5 phosphorylation western blot assay; assay type: cell-based, human; conditions: 10 microM, HEL or K562 cells (table does not say which)
Protocol: as §1, §2, §3

| Structure (SMILES) | Activity (inhibition of JAK2 phosphorylation) (JAK2) | IC50 [1] [µM] | IC50 (HEL cells) [µM] | Activity (inhibition of STAT5 phosphorylation) (STAT5) | IC50 ([1]; Homo sapiens) [µM] | IC50 (HEL cells; Homo sapiens) [µM] |
| --- | --- | --- | --- | --- | --- | --- |
| O=C1CCCC2=C1C(c1ccoc1)C1=C(N2)C(=O)c2ccccc2C1=O (centres unmarked) [Compound 24] | +++ (+++represents an inhibition at 10 microM > 75%) | < 5 | < 3 | + (+represents an inhibition at 10 microM > 50%) |  |  |
| O=C1CCCC2=C1C(c1cccs1)C1=C(N2)C(=O)c2ccccc2C1=O (centres unmarked) [Compound 6, 12-(thiophen-2-yl)-3,4-dihydrobenzo[b]acridine-1,6,11(2H,5H,12H)-trione] | + (+represents an inhibition at 10 microM > 30%) |  |  | ++ (++represents an inhibition at 10 microM > 50%) | < 5 | < 3 |
| CC1(C)CC(=O)C2=C(C1)NC1=C(C(=O)c3ncncc3C1=O)C2c1ccccc1 (centres unmarked) [Compound 8] | +++ (+++represents an inhibition at 10 microM > 75%) | < 5 | < 3 | + (+represents an inhibition at 10 microM > 50%) |  |  |
| O=C1CCCC2=C1C(c1ccccn1)C1=C(O2)C(=O)c2ccccc2C1=O (centres unmarked) [Compound 11, 12-(pyridin-2-yl)-3,4-dihydro-1H-benzo[b]xanthene-1,6,11(2H,12H)-trione] |  |  |  | + (+represents an inhibition at 10 microM > 50%) | < 1 | < 10 |
| COc1ccc(C2C3=C(CCCC3=O)OC3=C2C(=O)c2ccccc2C3=O)cc1OC (centres unmarked) [Compound 15] | ++ (++represents an inhibition at 10 microM > 50%) | < 10 | < 1 | ++ (++represents an inhibition at 10 microM > 50%) |  |  |
| O=C1CCCC2=C1C(c1ccc(Br)cc1)C1=C(O2)C(=O)c2ccccc2C1=O (centres unmarked) [Compound 10] | ++ (++represents an inhibition at 10 microM > 50%) | < 1 | < 3 | + (+represents an inhibition at 10 microM > 50%) |  |  |
| CC1(C)CC(=O)C2=C(C1)OC1=C(C(=O)c3ccccc3C1=O)C2c1ccco1 (centres unmarked) [Compound 20, 12-(furan-2-yl)-3,3-dimethyl-3,4-dihydro-1H-benzo[b]xanthene-1,6,11(2H,12H)-trione] | +++ (+++represents an inhibition at 10 microM > 75%) |  |  | ++ (++represents an inhibition at 10 microM > 50%) | < 1 | < 1 |
| CC1(C)CC(=O)C2=C(C1)OC1=C(C(=O)c3ccccc3C1=O)C2c1ccccn1 (centres unmarked) [Compound 12] | ++ (++represents an inhibition at 10 microM > 50%) | < 1 | < 3 | ++ (++represents an inhibition at 10 microM > 50%) |  |  |
| O=C1CCCC2=C1C(c1cccnc1)C1=C(N2)C(=O)c2ccccc2C1=O (centres unmarked) [Compound 17] | +++ (+++represents an inhibition at 10 microM > 75%) | < 5 | < 3 | + (+represents an inhibition at 10 microM > 50%) |  |  |
| CC1(C)CC(=O)C2=C(C1)NC1=C(C(=O)c3cn[nH]c3C1=O)C2c1ccccc1 (centres unmarked) [Compound 5] | + (+represents an inhibition at 10 microM > 30%) | < 5 | < 3 | + (+represents an inhibition at 10 microM > 50%) |  |  |
| CC1(C)CC(=O)C2=C(C1)OC1=C(C(=O)c3ccccc3C1=O)C2c1ccoc1 (centres unmarked) [Compound 21] | + (+represents an inhibition at 10 microM > 30%) | < 1 | < 3 | ++ (++represents an inhibition at 10 microM > 50%) |  |  |
| O=C1CCCC2=C1C(c1ccccc1Cl)C1=C(N2)C(=O)c2ccccc2C1=O (centres unmarked) [Compound 22] | ++ (++represents an inhibition at 10 microM > 50%) | < 5 | < 3 | +++ (+++represents an inhibition at 10 microM > 75%) |  |  |
| CC1(C)CC(=O)C2=C(C1)NC1=C(C(=O)c3ccccc3C1=O)C2c1cnc(Cl)nc1 (centres unmarked) [Compound 19] | ++ (++represents an inhibition at 10 microM > 50%) | < 5 | < 3 |  |  |  |
